Experimental data published in the supplement of paper PMC5908809.

How the values were obtained:
Experiment in all cases: relative IC50 (inflection point of fitted viability curve, relative to fitted max inhibition); higher = less sensitive
Details in all cases: 72 h
NK-YS (IL-2 2.5 ng/mL) = system: NK-YS (IL-2 2.5 ng/mL)
Procedure: (§1)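 Drug sensitivity and resistance testing: 5 concentrations over a 10,000-fold range, 72 h at 37 °C, viability by CellTiter-Glo normalised to DMSO and benzethonium chloride controls. IC50 is the inflection point of a logistic fit (min fixed at 0, max fitted), so it is relative to the fitted maximal inhibition. Kept only where fitted max inhibition is at least 50%.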

[1] = system: normal primary NK cells, pool 3 (3 donors) (IL-2 2.5 ng/mL)
Procedure: as §1

[2] = system: normal primary NK cells, pool 2 (3 donors) (IL-2 2.5 ng/mL)
Procedure: as §1

NKL (IL-2 2.5 ng/mL) = system: NKL (IL-2 2.5 ng/mL)
Procedure: as §1

KHYG-1 (IL-2 2.5 ng/mL) = system: KHYG-1 (IL-2 2.5 ng/mL)
Procedure: as §1

KAI3 (IL-2 2.5 ng/mL) = system: KAI3 (IL-2 2.5 ng/mL)
Procedure: as §1

SNK-6 (IL-2 2.5 ng/mL) = system: SNK-6 (IL-2 2.5 ng/mL)
Procedure: as §1

IMC-1 (IL-2 20 ng/mL) = system: IMC-1 (IL-2 20 ng/mL)
Procedure: as §1

NK-92 (IL-2 2.5 ng/mL) = system: NK-92 (IL-2 2.5 ng/mL)
Procedure: as §1

DERL-7 (IL-2 2.5 ng/mL) = system: DERL-7 (IL-2 2.5 ng/mL)
Procedure: as §1

YT (IL-2 2.5 ng/mL) = system: YT (IL-2 2.5 ng/mL)
Procedure: as §1

[3] = system: normal primary NK cells, pool 1 (3 donors), resting (IL-2 0 ng/mL)
Procedure: as §1

[4] = system: normal primary NK cells, pool 1 (3 donors) (IL-2 2.5 ng/mL)
Procedure: as §1

| Compound | relative IC50 (NK-YS (IL-2 2.5 ng/mL)) [nM] | relative IC50 [1] [nM] | relative IC50 [2] [nM] | relative IC50 (NKL (IL-2 2.5 ng/mL)) [nM] | relative IC50 (KHYG-1 (IL-2 2.5 ng/mL)) [nM] | relative IC50 (KAI3 (IL-2 2.5 ng/mL)) [nM] | relative IC50 (SNK-6 (IL-2 2.5 ng/mL)) [nM] | relative IC50 (IMC-1 (IL-2 20 ng/mL)) [nM] | relative IC50 (NK-92 (IL-2 2.5 ng/mL)) [nM] | relative IC50 (DERL-7 (IL-2 2.5 ng/mL)) [nM] | relative IC50 (YT (IL-2 2.5 ng/mL)) [nM] | relative IC50 [3] [nM] | relative IC50 [4] [nM] |
| --- | --- | --- | --- | --- | --- | --- | --- | --- | --- | --- | --- | --- | --- |
| CC[C@H](C)C(=O)O[C@H]1C[C@@H](C)C=C2C=C[C@H](C)[C@H](CC[C@@H]3C[C@@H](O)CC(=O)O3)[C@H]21 [Lovastatin] | 1940 | > 10000 | > 10000 | 3520 | – | – | – | – | – | – | – | – | – |
| Cn1ncnc1[C@H]1c2n[nH]c(=O)c3cc(F)cc(c23)N[C@@H]1c1ccc(F)cc1 [Talazoparib] | 22.2 | – | – | 2.3 | 93.8 | 28.1 | 134 | 164 | 59.8 | – | – | – | – |
| CC(C)c1c(C(=O)Nc2ccccc2)c(-c2ccccc2)c(-c2ccc(F)cc2)n1CC[C@@H](O)C[C@@H](O)CC(=O)O [Atorvastatin] | 579 | – | – | 332 | 2380 | 2760 | – | 1520 | 3670 | 2180 | 1630 | – | – |
| COc1cc(OC)c(/C=C/S(=O)(=O)Cc2ccc(OC)c(NCC(=O)O)c2)c(OC)c1 [Rigosertib] | 40.4 | – | – | 43 | 35.8 | 48.5 | 53.5 | 37.5 | 53.6 | 36.7 | 46.9 | 840 | – |
| COc1cc([C@@H]2c3cc4c(cc3[C@@H](O[C@@H]3O[C@@H]5CO[C@@H](C)O[C@H]5[C@H](O)[C@H]3O)[C@H]3COC(=O)[C@H]23)OCO4)cc(OC)c1O [Etoposide] | 161 | – | 1920 | 47.3 | 435 | 73.2 | 615 | 137 | 646 | 134 | 1080 | 743 | 1830 |
| Cc1cccc(-c2nn3c(c2-c2ccnc4ccc(C(N)=O)cc24)CCC3)n1 [Galunisertib] | > 1000 | > 1000 | > 1000 | > 1000 | – | – | – | > 1000 | – | – | – | – | – |
| CNC(=O)c1ccccc1Sc1ccc2c(/C=C/c3ccccn3)n[nH]c2c1 [Axitinib] | 1100 | – | – | 734 | 916 | 717 | 707 | 2760 | 1500 | 323 | 1200 | – | – |
| CO[C@@H](C(=O)N1Cc2[nH]nc(NC(=O)c3ccc(N4CCN(C)CC4)cc3)c2C1)c1ccccc1 [Danusertib] | 204 | – | – | 1380 | 493 | 460 | 413 | 312 | 337 | 175 | – | – | – |
| C[C@]12O[C@H](C[C@]1(O)CO)n1c3ccccc3c3c4c(c5c6ccccc6n2c5c31)CNC4=O [Lestaurtinib] | 85 | 44.1 | 21.5 | 28.1 | 16 | 11.9 | 38.5 | 96.7 | 31.1 | 28.6 | 78.3 | – | 20.9 |
| O=P1(NCCCl)OCCCN1CCCl (centres undefined) [Ifosfamide] | – | > 10000 | > 10000 | > 10000 | > 10000 | > 10000 | – | > 10000 | > 10000 | > 10000 | > 10000 | – | – |
| CN(Cc1cnc2nc(N)nc(N)c2n1)c1ccc(C(=O)N[C@@H](CCC(=O)O)C(=O)O)cc1 [Methotrexate] | 19.1 | > 5000 | > 5000 | 38.4 | 17.8 | 17.9 | 9.91 | 26.1 | 21.1 | 268 | 13.7 | – | – |
| Cc1cc(Nc2nc(N[C@@H](C)c3ncc(F)cn3)ncc2Cl)[nH]n1 [AZD1480] | 78.1 | 123 | 80.6 | 23.3 | 26.1 | 20.8 | 73.1 | 331 | 126 | 50.5 | 197 | – | 75.5 |
| N#Cc1ccc2[nH]c(O)c(-c3ccc(CN4CCOCC4)cn3)c2c1 [AZD-1080] | – | – | – | – | – | – | > 10000 | 3180 | > 10000 | 3420 | – | – | – |
| C=CCN(/C=C1/C(=O)O[C@H](COC)[C@@]2(C)C1=C(O)C(=O)C1=C2[C@H](OC(C)=O)C[C@]2(C)C(=O)CC[C@@H]12)CC=C [Sonolisib] | – | – | – | – | – | – | – | – | – | – | – | 1630 | 1200 |
| NS(=O)(=O)OC[C@@H]1C[C@@H](n2ccc3c(N[C@H]4CCc5ccccc54)ncnc32)C[C@@H]1O [Pevonedistat] | 507 | 335 | 449 | 448 | 69 | 48.7 | 39.7 | 107 | 633 | 430 | 55.1 | – | 156 |
| NC(=S)N/N=C/c1ncccc1N [Triapine] | 1450 | – | – | 3560 | 642 | 1320 | 3550 | 3720 | 748 | 3580 | 3750 | 1510 | 2490 |
| CNC(=O)c1ccc2cc([C@@]3(O)CCn4cncc43)ccc2c1 [Orteronel] | > 10000 | > 10000 | > 10000 | – | – | > 10000 | – | – | – | – | – | – | – |
| Clc1ccc(Nc2nnc(Cc3ccncc3)c3ccccc23)cc1 [Vatalanib] | – | > 10000 | – | – | – | – | – | – | – | – | – | – | > 10000 |
| COc1cc(Nc2ncc(F)c(Nc3ccc4c(n3)N(COP(=O)(O)O)C(=O)C(C)(C)O4)n2)cc(OC)c1OC [Fostamatinib] | – | – | – | – | – | – | – | > 2500 | – | – | – | – | – |
| O=C(NOCCO)c1ccc2cncn2c1Nc1ccc(I)cc1F [GDC-0623] | – | – | – | 22.1 | 25.6 | – | – | > 2500 | > 2500 | – | – | – | – |
| CCC(C)(C)C(=O)O[C@H]1C[C@@H](C)C=C2C=C[C@H](C)[C@H](CC[C@@H]3C[C@@H](O)CC(=O)O3)[C@H]21 [Simvastatin] | 2380 | – | – | 2450 | – | – | – | – | – | – | – | – | – |
| O=C1NC(=O)[C@@H](c2cn3c4c(cccc24)CCC3)[C@@H]1c1c[nH]c2ccccc12 [Tivantinib] | 118 | – | – | 370 | 221 | 167 | 50.8 | 310 | 115 | 347 | 238 | – | – |
| Cn1c(=O)n(-c2ccc(C(C)(C)C#N)cc2)c2c3cc(-c4cnc5ccccc5c4)ccc3ncc21 [Dactolisib] | 26.1 | – | 31.8 | 10.4 | 48 | 17.3 | 40.5 | 198 | 15 | 9.68 | 40.9 | – | – |
| Cc1ccc(Nc2nccc(N(C)c3ccc4c(C)n(C)nc4c3)n2)cc1S(N)(=O)=O [Pazopanib] | – | > 10000 | – | – | – | – | 31.3 | – | – | – | – | – | – |
| NC(=O)Nc1cc(-c2cccc(F)c2)sc1C(=O)N[C@H]1CCCNC1 [AZD7762] | 132 | – | – | 43.2 | 29.2 | 28.8 | 127 | 353 | 131 | 115 | 145 | – | – |
